Tests used:
[1] = Plantar carrageenin edema test (anti-inflammatory); assay type: in vivo, albino Sprague-Dawley male rats; settings: gastric catheter; for Inhibition % M ± σ: complementary value to area relative inflammation; for % Area Relative Inflammation (M ± σ): control = 100%
Description: The anti-inflammatory activity of two compounds was studied by means of the test of the plantar carrageenin edema (C. A. Winter, Proc. Soc. Exp. Brol. Med. 111, 544-47 (1962). The method used consists of preparing homogeneous lots of albino Sprague-Dawley male rats with weights of from 180-200 gr, to which are administered, by gastric catheter, the test compound suspended in a vehicle containing 0.2% CMC and 0.1% Tween 80, sixty minutes before the production of the subplantar edema. […] Immediately after this, all the rats received via oral administration 20 ml/kg of distilled water to attain uniform hydration. 60 minutes later a 1% carrageenin solution in physiologic serum was administered subcutanaceously into the left rear leg of each rat, at a dosage of 0.1 ml/rat. The same amount of physiologic serum was then injected into the right rear leg of each rat.
The plantar amount of the left and right rear extremities of each rat was determined before the administration of the carrageenin solution, and 1, 2, 3, 4, 5 and 6 hours after the administration thereof by means of a mercury plethysmograph, Ugo Basile Model 7.100. Indomethacin was used as a sample drug for purposes of comparison. Results were calculated as percentages representing the value indicated for each area relative to the value of the areas for the control group to which were assigned the value of 100% inflammation. A complementary value, the percentage of inhibition, was also calculated from the data. The arithmetic average and standard deviation (M±σ) were calculated for the obtained values as to the volumes of each leg, normal or inflamed, for each animal in each group (control and treated).

[2] = Acute toxicity by oral administration to rats; settings: for LD0: oral, rats
Description: The acute toxicity of the foregoing compounds according to the present invention was studied by oral administration thereof to rats. The LD0 and LD50 values were determined, together with the limits of reliability as determined by the method of Litchfield and Wilcoxon.

[3] = Fetal and teratogenous toxicity; assay type: in vivo, Sprague-Dawley rats and first generation fetuses; settings: 15, 50 and 75 mg/kg/day oral during organogenesis
[4] = Test of abdominal contractions by acetic acid (analgesic); assay type: in vivo, male mice; settings: gastric catheter, 16 mice, half an hour before acetic acid i.p.
Description: (§1) The new 2-[(2,6-dichlorophenyl)amino]phenylacetoxyacetyl derivatives, according to the present invention, are compounds of therapeutic use with anti-inflammatory and analgesic pharmacologic properties, as shown by experimental pharmacologic data presented below. The analgesic activity of the compound (I) where R=H was determined by three known methods as follows.
This test was carried out according to the experimental model described by Koster R., Anderson, M. and De Bear, E. J. Fed. Proc., 18, 412 (1959). A suspension of the product to be tested was administered to a group of male mice through a gastric catheter half an hour before injecting the mice intraperitoneally with 0.2 ml of a 2% acetic acid solution. The number of abdominal contractions, manifested by drawing in of the rear third of the animal as a consequence of the chemical aggression incited by the acetic acid, were then counted.

[5] = Hot plate thermal stimulus test on mice (analgesic); assay type: in vivo; settings: gastric catheter, hot plate 56° C., 10 mice, vs control mice
Description: as §1
This test is carried out according to the experimental model of Wolfe, G. and MacDonal, A. D., described in 3. Pharm. Exper. Therap. 80, 300 (1944). This test consists of administering, through a gastric catheter, a suspension of the test compound at the indicated dosages. After 30 minutes, 1 h., 11/2 h. and 2 h. the determinations were made. Mice were placed onto a hot plate at a temperature of 56° C. Table 2 indicates the percentage of protection from pain afforded by the dosages of the test compound in comparison with a group of control mice to which no test compound was administered.

[6] = Podolorimetric test in a rat (analgesic, yeast-infected leg); assay type: in vivo; settings: 10 rats, vs control rats
Description: as §1
This test is based upon the method described by Randall, L. and Selitto, 3. Arch. Int. Pharmacodyn. 111, 409 (1957), consisting of administering the drug in a 1% carboxymethylcellulose (CMC) suspension. The test compound is administered to the rat, and 30 minutes thereafter a 20% yeast suspension is administered into the left leg of the rat and the same amount of physiologic serum is administered to the right leg of the rat. The threshold of the weight supported by both legs is determined 1 h., 2 h. and 4 h. after the administration of the yeast. Table 3 states the percentage of protection in terms of increased weight supported by the yeast-infected leg, relative to the dosage of the test compound, in comparison with a group of control rats to which no test compound was administered.

## O=C(COC(=O)Cc1ccccc1Nc1c(Cl)cccc1Cl)OCc1ccccc1 [I, R = CH2 --C6 H5, Benzyl 2-[(2,6-dichlorophenyl)amino]phenylacetoxyacetate]
[1]; 3.75 mg/kg, 32 animals
  Inhibition % M ± σ: 35.96%
  % Area Relative Inflammation (M ± σ): 64.04 ± 7.91%
[2]
  LD0: 38.51 mg/kg
[2]; rat, in vivo, po
  LD50: 95.3 mg/kg
[3]
  teratogenous effects: did not have any teratogenous effects
  toxic effects on the gestating females: did not produce any toxic effects on the gestating females

## O=C(O)COC(=O)Cc1ccccc1Nc1c(Cl)cccc1Cl [I, R = H, 2-[(2,6-dichlorophenyl)amino]phenylacetoxyacetic acid]
[4]; 100 mg/kg
  % PROTECTION (CONTROL OF CONTRACTIONS): 30.81%
[4]; 250 mg/kg
  % PROTECTION (CONTROL OF CONTRACTIONS): 67.62%
[5]; 20 mg/kg
  % PROTECTION: 22.44%
[5]; 40 mg/kg
  % PROTECTION: 24.80%
[6]; 2.5 mg/kg
  % PROTECTION (increased weight supported by the yeast-infected leg): 32.05%
[6]; 10 mg/kg
  % PROTECTION (increased weight supported by the yeast-infected leg): 45.45%
[1]; 3.0 mg/kg, 32 animals
  Inhibition % M ± σ: 33.75%
  % Area Relative Inflammation (M ± σ): 63.25 ± 5.88%
[2]
  LD0: 68.03 mg/kg
[3]
  teratogenous effects: did not have any teratogenous effects
  toxic effects on the gestating females: did not produce any toxic effects on the gestating females

## COc1ccc2c(c1)c(CC(=O)O)c(C)n2C(=O)c1ccc(Cl)cc1 [INDOMETHACIN, Indomethacin, reference compound]
[1]; 2.5 mg/kg, 40 animals
  Inhibition % M ± σ: 46.52%
  % Area Relative Inflammation (M ± σ): 53.48 ± 7.82%

From patent US4548952A, “2-[(2,6-Dichlorophenyl)amino]phenylacetoxyacetyl derivatives and therapeutic compositions containing same” (priority 1983, dated 1985)
